The results in this text go back to article PMC9030254, “Target Hopping from Protein Kinases to PXR: Identification of Small-Molecule Protein Kinase Inhibitors as Selective Modulators of Pregnane X Receptor from TüKIC Library” (Cells, 2022).

The structures appear in SMILES notation.

Data set [1] deals with T1, PXR (Homo sapiens, UniProt O75469).
T1 sequence (O75469 1-434): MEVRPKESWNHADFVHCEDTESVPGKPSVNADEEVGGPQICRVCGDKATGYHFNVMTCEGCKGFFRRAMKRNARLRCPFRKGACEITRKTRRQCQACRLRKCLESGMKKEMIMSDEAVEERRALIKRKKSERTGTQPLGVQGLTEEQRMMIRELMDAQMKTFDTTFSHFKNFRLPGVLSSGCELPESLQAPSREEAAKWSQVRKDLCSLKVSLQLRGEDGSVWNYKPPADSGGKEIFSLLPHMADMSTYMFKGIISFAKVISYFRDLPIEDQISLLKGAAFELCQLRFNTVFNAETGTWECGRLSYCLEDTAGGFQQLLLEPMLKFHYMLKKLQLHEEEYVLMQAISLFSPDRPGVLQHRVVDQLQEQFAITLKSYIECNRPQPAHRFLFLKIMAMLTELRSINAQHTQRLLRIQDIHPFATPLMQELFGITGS
The data set can be described thus: PXR-dependent CYP3A4 reporter gene assay, antagonist mode (cotreatment with rifampicin). Type of data set: cell-based. Also noted: expressed in transfected cells; host or cells: H-P cells (HepG2 stably transfected with PXR). The following applies: for IC50: read-out: IC50, inhibition of rifampicin-induced PXR activation. An excerpt:
Figure 1 Identification of novel putative PXR ligands from the TüKIC library. (A) Workflow of the in silico screening and structures of the identified candidate ligands. (B) Concentration–response curves of the novel inhibitors for antagonism of PXR activity. (C) Concentration–response curves of the same compounds and 109 for PXR activation. […] Data are expressed as mean ± SD fold induction with respect to the DMSO-treated cells from three independent experiments. IC50 and EC50 values calculated with nonlinear regression using formula with 3 parameters (constraint bottom =1) using GraphPadPrism.
Supplementary Figure S1. Effects of 56 in silico screened TüKIC compounds (A) alone or (B) in combination […]
H-P cells were transiently
Luciferase activities were measured after 24 h treatment. Data is expressed as mean ± SD %. Activation was calculated according to Zhu et al. from three independent experiments with technical triplicates. Fold induction achieved by 10 μM […]
Green and red dashed lines represent the 100% and 50% activation, respectively.
(1 picture or pasted object on this page, not shown here)
A general note: A reporter such as luciferase makes a cellular process visible.

Data set [2] deals with 335 wild-type protein kinases. Nature of the data set: Kinase inhibition profiling, selectivity score. Type of data set: biochemical. On the procedure: (§1) The analysis was performed by ProQinase (Freiburg, Germany).
In the next data set the target is T2, IGF1R (Homo sapiens, UniProt P08069).
T2 construct: purchased ProQinase (Freiburg, Germany)
The data set can be described thus: Kinase profiling. Format: biochemical. As for the experimental part: as §1

A further data set addresses T3, CAMK2B (Homo sapiens, UniProt Q13554).
T3 construct: purchased ProQinase (Freiburg, Germany)
Nature of the data set: Kinase profiling. Format: biochemical. As for the experimental part:
as §1

The target of a further data set is T4, EPHB3 (Homo sapiens, UniProt P54753).
T4 construct: purchased ProQinase (Freiburg, Germany)
T4 sequence (P54753 34-998): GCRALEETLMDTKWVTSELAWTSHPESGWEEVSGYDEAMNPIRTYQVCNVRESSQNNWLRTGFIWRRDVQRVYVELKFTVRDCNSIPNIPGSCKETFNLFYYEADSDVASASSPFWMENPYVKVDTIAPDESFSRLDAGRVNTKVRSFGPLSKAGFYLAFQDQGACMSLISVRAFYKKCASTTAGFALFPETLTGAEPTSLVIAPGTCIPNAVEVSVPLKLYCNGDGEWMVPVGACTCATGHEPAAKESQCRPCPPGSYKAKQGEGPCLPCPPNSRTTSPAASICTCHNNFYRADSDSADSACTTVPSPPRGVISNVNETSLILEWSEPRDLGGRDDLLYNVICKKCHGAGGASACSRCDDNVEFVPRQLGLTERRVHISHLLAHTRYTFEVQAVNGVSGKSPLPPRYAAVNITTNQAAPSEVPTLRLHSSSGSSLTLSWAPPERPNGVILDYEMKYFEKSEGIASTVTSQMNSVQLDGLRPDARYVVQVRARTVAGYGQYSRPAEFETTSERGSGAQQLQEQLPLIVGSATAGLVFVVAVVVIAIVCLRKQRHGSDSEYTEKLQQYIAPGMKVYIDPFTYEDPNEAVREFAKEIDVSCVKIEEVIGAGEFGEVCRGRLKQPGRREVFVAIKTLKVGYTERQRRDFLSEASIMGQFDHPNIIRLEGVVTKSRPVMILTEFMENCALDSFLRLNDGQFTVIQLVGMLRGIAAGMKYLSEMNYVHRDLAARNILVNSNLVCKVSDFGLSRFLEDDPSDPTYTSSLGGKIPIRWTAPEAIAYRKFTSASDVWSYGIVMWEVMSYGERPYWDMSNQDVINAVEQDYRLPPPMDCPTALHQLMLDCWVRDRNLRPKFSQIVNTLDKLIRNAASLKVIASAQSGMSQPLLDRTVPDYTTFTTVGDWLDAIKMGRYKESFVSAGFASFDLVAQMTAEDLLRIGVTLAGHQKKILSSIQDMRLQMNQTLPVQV
The data set can be described thus: Kinase profiling. Type of data set: biochemical. As for the experimental part:
as §1

Another data set addresses T5, ROCK2 (Homo sapiens, UniProt O75116).
T5 construct: purchased ProQinase (Freiburg, Germany)
The data set can be described thus: Kinase profiling. Format: biochemical. As for the experimental part:
as §1

In data set [3] the target is T1, PXR. The data set can be described thus: Competitive radioligand binding assay ([3H]SR12813). Also noted: purchased Eurofins Cerep (contract assay service). The following applies: 7 concentrations 0.01-10 µM, duplicate; read-out: IC50, inhibition of binding of 3H-labeled SR12813 to PXR. On the procedure: The assay was performed by Eurofins Cerep (Celle-Lévescault, France). […] Compound binding was calculated as % inhibition of the binding of the radioactively labeled PXR ligand [3H]SR12813 to recombinant human PXR, as described previously.

T5 sequence (O75116 whole entry): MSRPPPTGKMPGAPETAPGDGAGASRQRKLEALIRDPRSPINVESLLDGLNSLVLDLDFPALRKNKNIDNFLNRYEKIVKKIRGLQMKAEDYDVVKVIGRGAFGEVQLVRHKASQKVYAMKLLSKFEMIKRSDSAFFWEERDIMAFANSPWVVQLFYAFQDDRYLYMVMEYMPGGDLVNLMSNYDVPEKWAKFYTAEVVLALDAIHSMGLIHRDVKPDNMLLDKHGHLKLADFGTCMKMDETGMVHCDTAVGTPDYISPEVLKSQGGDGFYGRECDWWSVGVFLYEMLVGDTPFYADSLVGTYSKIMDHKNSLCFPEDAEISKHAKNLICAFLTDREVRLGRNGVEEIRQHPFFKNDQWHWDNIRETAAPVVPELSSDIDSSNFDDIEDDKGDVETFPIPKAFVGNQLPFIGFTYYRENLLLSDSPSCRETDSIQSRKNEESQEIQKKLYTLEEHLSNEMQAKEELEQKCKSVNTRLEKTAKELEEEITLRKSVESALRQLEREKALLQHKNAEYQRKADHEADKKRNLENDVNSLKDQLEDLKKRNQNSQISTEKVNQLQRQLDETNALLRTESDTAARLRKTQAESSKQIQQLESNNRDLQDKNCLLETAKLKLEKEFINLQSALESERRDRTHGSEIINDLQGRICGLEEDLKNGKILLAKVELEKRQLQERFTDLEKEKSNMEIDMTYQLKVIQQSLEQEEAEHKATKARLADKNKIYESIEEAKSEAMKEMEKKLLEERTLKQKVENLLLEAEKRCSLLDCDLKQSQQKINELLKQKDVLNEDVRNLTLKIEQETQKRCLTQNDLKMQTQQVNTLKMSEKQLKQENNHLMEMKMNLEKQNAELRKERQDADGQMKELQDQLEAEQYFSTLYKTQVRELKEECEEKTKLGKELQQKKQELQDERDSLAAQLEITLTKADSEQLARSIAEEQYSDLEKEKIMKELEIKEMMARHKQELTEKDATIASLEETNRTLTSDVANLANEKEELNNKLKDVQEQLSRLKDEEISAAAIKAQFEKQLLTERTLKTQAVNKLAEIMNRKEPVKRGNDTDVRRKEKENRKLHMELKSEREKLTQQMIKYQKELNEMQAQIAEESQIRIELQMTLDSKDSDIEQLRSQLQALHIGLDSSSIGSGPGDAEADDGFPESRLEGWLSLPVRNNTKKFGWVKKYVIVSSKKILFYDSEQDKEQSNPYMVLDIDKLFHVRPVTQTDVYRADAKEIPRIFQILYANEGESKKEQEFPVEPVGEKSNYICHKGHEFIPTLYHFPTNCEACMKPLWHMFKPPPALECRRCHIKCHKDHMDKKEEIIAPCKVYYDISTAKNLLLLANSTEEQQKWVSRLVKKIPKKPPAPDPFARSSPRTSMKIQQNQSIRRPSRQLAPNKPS
T2 sequence (P08069 31-1367): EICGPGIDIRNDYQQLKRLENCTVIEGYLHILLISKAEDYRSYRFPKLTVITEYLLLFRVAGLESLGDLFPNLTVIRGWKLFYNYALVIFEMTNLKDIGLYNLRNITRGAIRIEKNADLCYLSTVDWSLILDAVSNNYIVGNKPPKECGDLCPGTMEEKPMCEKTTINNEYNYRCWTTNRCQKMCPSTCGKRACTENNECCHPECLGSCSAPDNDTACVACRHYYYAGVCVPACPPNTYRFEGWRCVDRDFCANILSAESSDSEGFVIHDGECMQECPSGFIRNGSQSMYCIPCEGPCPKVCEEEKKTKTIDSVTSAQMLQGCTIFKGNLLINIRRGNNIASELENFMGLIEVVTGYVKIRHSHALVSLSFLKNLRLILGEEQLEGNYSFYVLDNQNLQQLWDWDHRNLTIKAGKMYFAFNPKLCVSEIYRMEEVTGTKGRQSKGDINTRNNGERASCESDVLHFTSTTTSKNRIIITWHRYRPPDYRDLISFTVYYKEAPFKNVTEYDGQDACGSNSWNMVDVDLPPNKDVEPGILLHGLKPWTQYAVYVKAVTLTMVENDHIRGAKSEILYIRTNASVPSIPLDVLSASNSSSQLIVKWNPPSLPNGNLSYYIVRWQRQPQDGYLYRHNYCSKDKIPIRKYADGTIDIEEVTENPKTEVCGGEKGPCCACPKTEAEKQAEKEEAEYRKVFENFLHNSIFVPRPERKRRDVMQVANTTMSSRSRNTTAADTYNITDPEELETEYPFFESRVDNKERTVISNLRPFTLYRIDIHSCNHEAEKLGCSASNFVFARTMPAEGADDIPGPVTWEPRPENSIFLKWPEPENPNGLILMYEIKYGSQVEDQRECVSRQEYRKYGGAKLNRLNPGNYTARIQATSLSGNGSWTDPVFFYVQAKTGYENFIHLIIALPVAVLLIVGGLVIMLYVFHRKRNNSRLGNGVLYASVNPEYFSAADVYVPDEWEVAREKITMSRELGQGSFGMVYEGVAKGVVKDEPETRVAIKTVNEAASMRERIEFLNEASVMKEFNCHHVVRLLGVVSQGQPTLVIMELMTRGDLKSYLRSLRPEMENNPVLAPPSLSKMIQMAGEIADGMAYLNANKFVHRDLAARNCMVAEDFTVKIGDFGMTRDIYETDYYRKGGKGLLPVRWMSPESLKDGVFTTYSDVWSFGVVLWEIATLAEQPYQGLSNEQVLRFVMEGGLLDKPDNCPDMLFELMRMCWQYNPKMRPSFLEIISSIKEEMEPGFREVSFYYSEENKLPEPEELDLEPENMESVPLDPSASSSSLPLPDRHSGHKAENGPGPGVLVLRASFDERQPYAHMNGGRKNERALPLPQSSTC
T3 sequence (Q13554 whole entry): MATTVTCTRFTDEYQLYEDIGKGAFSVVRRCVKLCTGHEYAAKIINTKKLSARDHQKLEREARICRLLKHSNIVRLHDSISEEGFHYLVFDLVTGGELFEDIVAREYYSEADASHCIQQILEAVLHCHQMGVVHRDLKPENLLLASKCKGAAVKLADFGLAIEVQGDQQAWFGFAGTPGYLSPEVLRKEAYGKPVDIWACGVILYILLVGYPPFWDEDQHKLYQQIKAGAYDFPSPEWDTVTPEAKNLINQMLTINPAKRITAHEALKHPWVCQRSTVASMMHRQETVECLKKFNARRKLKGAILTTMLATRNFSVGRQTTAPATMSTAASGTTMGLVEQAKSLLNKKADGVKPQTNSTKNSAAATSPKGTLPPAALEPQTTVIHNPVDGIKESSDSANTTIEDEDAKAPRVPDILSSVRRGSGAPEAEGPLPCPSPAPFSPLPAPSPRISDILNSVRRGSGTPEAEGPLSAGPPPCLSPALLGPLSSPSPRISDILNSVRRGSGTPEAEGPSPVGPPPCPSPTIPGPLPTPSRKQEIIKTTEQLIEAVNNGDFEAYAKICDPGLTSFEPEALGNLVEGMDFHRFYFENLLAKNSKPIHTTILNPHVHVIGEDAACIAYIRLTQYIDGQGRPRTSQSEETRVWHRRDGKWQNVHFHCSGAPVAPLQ

What is called IC50 is the point on the concentration scale where inhibition reaches its midpoint. As for `Cc1ccc(NC(=O)Cc2ccccc2)cc1Nc1ccc2c(c1)CCCCC2=O` [Compound 73], the IC50 on PXR [1] came to 8.3 µM.

As to `O=C(Cc1ccccc1)Nc1ccc(F)c(Nc2ccc3c(c2)CCCCC3=O)c1` [Compound 100], the “Selectivity Score (< 50 % residual activity)” value was 0.015 in data set [2] (1.0E-05 M) and 0.003 in data set [2] (1.0E-06 M). For the same compound, the IC50 on PXR [1] turned out to be 2.8 µM; on PXR [3], 4.5 µM. Further, the Residual activity at IGF1R (1.0E-05 M) is listed as 101 % of control; on IGF1R (1.0E-06 M) it was 97 % of control; on CAMK2B (1.0E-05 M), 115 % of control; at CAMK2B (1.0E-06 M), 144 % of control; at EPHB3 (1.0E-05 M) it was 69 % of control; at EPHB3 (1.0E-06 M), 100 % of control. The Residual activity on ROCK2 (1.0E-05 M) was 102 % of control; on ROCK2 (1.0E-06 M), 101 % of control.

For the compound `O=C(Nc1ccc(F)c(Nc2ccc3c(c2)CCCCC3=O)c1)c1cccc(F)c1` [Compound 109], the “Selectivity Score (< 50 % residual activity)” value in data set [2] (1.0E-05 M) is listed as 0.024; in data set [2] (1.0E-06 M) it was 0.012. Moreover, on PXR [1] (H-P cells, 10 µM compound + 10 µM rifampicin, 24 h), the “inhibition of rifampicin-mediated induction of CYP3A4 reporter activity” value is recorded as “does not inhibit PXR”. The Residual activity is given as 80 % of control at IGF1R (1.0E-05 M); 104 % of control on IGF1R (1.0E-06 M); 104 % of control on CAMK2B (1.0E-05 M); 132 % of control at CAMK2B (1.0E-06 M); 85 % of control on EPHB3 (1.0E-05 M); 100 % of control at EPHB3 (1.0E-06 M). Further, the figures for the Residual activity on ROCK2 (1.0E-05 M) and on ROCK2 (1.0E-06 M) were 98 % of control and 103 % of control, respectively. Also, the IC50 at PXR [3] is 2.9 µM.
